Assay results published in patent US20230372296A1, “COMPOSITIONS AND METHODS FOR ANXIETY DISORDER TREATMENT” (PSILOBRAIN THERAPEUTICS INC., priority 2020, published 2023).

Tested on: C57BL/6 mice
Assay: elevated plus maze model of anxiety disorder
Type: in vivo
Source text: The dosage ranges are based upon our preclinical rodent studies testing the anti-anxiety effects of formula (I) and crocin (across varying doses and combinations) on mouse behavior in the elevated plus maze task (see FIG. 1). The elevated plus maze is one of the most widely used tests for measuring anxiety-like behavior and the anti-anxiety effects of pharmacological agents and is based on the natural aversion of mice for open and elevated areas, as well as their natural spontaneous exploratory activity in novel environments. […] Finally, these dosage ranges, as identified from our preclinical studies are commensurate with clinical dosages safely prescribed in humans.
The elevated plus maze model is a behavioral assay for rodents which has been used to assess the […] effect of pharmacological agents. In the model, anxiety behavior of rodents is assessed by determining the ratio of time spent on the arms relative to the time spent in the closed arms of the elevated plus maze structure. The model relies on rodents' affinity to dark, enclosed spaces.
In the elevated plus model, C57BL/6 mice, aged between 6 and 7 weeks were acclimated for at least five days and assigned randomly to treatment groups. Mice were housed on a 12 hour light/dark cycle. No more than 4 mice were kept in each ventilated cage. Mice were provided with standard rodent chow and water ad libitum. Test compounds were administered through the oral route in a volume of 10 milliliters per kilogram (ml/kg) and were formulated in 0.9% saline. 12 groups of mice were tested in the model, each group consisting of 10 mice. After acclimation, test compositions were administered to the animals in the amounts, in milligram per kilogram of mouse weight (mg/kg) according to table 1.
As shown in the table, Group 1 was administered vehicle only. Groups 2 through 7 were administered various combinations of psilocybin and crocin. Groups 8-12 were administered either psilocybin alone or crocin alone. Behavioral testing was performed between 7-9 days after administration of the compounds.
Testing was performed in dim light of 40 lux. The elevated plus maze consists of two open and two closed arms (arm length: 30 cm; width: 5 cm). Open arms have a small 1 cm edge and the closed arms are bordered by a 15 cm wall. At the beginning of the task, mice were placed in the center of the elevated plus maze facing an open arm. Mice were video tracked while exploring the maze for 5 min. The time spent in the open and closed arms was measured and analyzed.
Comparisons were performed using 1 w-ANOVA, Fisher's LSD test. Significance is shown with a single asterisk if P<0.05, with a double asterisk if P<0.01, and with a triple asterisk if P<0.001.

SMILES | time in open arms of elevated plus maze vs vehicle (crocin alone 30 mg/kg oral, tested 7-9 days after administration, 5 min) | time in open arms of elevated plus maze vs vehicle (crocin alone 50 mg/kg oral, tested 7-9 days after administration, 5 min) | time in open arms of elevated plus maze vs vehicle (psilocybin 0.5 mg/kg and higher, administered on its own) | time in open arms of elevated plus maze vs vehicle (psilocybin alone 0.1 mg/kg oral, tested 7-9 days after administration, 5 min) | time in open arms of elevated plus maze vs vehicle (psilocybin alone 0.5 mg/kg oral, tested 7-9 days after administration, 5 min) | time in open arms of elevated plus maze vs vehicle (psilocybin alone 1 mg/kg oral, tested 7-9 days after administration, 5 min)
CC(/C=C/C=C(\C)C(=O)O[C@@H]1O[C@H](CO[C@@H]2O[C@H](CO)[C@@H](O)[C@H](O)[C@H]2O)[C@@H](O)[C@H](O)[C@H]1O)=C\C=C\C=C(C)\C=C\C=C(/C)C(=O)O[C@@H]1O[C@H](CO[C@@H]2O[C@H](CO)[C@@H](O)[C@H](O)[C@H]2O)[C@@H](O)[C@H](O)[C@H]1O [crocin, Crocin] | did not show a significant beneficial effect on anxiety | did not show a significant beneficial effect on anxiety | – | – | – | –
CN(C)CCc1c[nH]c2cccc(OP(=O)(O)O)c12 [psilocybin, Psilocybin] | – | – | either no changes in mouse behavior were observed, or increased anxiety-like behavior | no significant difference | significant reduction in open arm time | significant reduction in open arm time
